Source: patent US20260240792A1, “COMPOSITIONS FOR TREATING 5-HT2 CONDITIONS AND METHODS OF USING THE SAME” (Board of Supervisors of Louisiana State University and …, priority 2022, published 2026)
“And” between values parts separate entries of the source, which are not always exact repeats. Equal entries are not always repeated. “Also recorded” adds a separate entry of the source.

Columns and labels:
Type in all cases: in vivo, rabbit
[1] = system: rabbits; assay: Topical ocular dosing in rabbits: observation of CNS, systemic, ocular and behavioral effects, ocular tolerability; conditions: for adverse events on repeated dosing / threshold dose for inducing systemic effects and minimal undesirable events: 50 μl per eye; for adverse events on repeated dosing: 2 times on day 1 then 4 times per day for 3 days
Protocol: Apparent Ocular Irritability • b. Induction of Inflammation • c. Reduction of Corneal Barrier Integrity • d. Dry Eye or Excessive Tearing • e. Induction of Neovascularization • f. Induction of Scleral Reddening
Parameters Assessed during 2 hour Observation Window (see, for example, FIG. 1):
Two studies were performed to determine at what dose between 0.01% and 0.1% were behavioral and/or systemic effects observed. 50 μL doses at 0.01%, 0.05%, and 0.075% per eye applied and assessments were made as indicated herein.
The application of most topical eye drops requires repeatedly dosing up to 9 times per day in order to maintain efficacy across the course of waking hours and have efficacious levels available during sleeping hours. The effects of repeated ocular dosing of R-DOI were assessed in a similar manner as described herein, with the exception that doses of 0.01% or 0.05% were applied repeatedly as outlined herein:
Animals from the acute dosing were continued through the repeated dosing study. Animals were dosed at the indicated concentration 2 times on day 1 and then dosed 4 times per day for 3 subsequent days. Doses were administered at 50 μl per eye into both eyes of the animal.
Rabbits were assessed for clinically clear eyes by slit lamp ophthalmic scoring. All eyes of all rabbits were normal.
Following balancing animals were treated with 50 μL of Control ophthalmic BSS/0.5% CMC or 0.01% Compound 1 in ophthalmic BSS/0.5% CMC.
Any behavioral changes were continuously monitored over the next 2.5 hours (FIG. 3).
We can determine if a single dose of the ocular composition of 0.01% R-DOI with 0.5% carboxymethylcellulose in ophthalmic BSS: • 1. Reproduced previous findings that R-DOI had IOP depressing effects. • 2. Produced any readily observable behavioral effects. • 3. Was tolerated by the eye without adverse ocular effects, including absence of: • a. Apparent Ocular Irritability • b. Induction of Inflammation • c. Dry Eye or Excessive Tearing • d. Induction of Scleral Reddening • 4. Reduced IOP • 5. Maintained Reduction in IOP • 6. Increased Tear Film Production
(§1) • Rabbits were assessed for clinically clear eyes by slit lamp ophthalmic scoring. All eyes of all rabbits were normal. • Each eye of each rabbit was then assessed for initial IOP by tonometer. • Each eye of each rabbit was assessed for tear film production by Schirmer's Tear Flo Strips at a 30 second interval of analysis. Tear measures were evaluated by a digital caliper to determine mm of tears collected. • Rabbits were sorted into two groups attempting to balance IOP numbers (one higher, one lower animal per group). • Following animals were treated with 50 μL of Control ophthalmic BSS/0.5% CMC or 0.01% R-DOI HCl in ophthalmic BSS/0.5% CMC. • Any apparent behavioral changes were continuously monitored over the next 2.5 hours. • IOP determinations were made at 30 minutes, 1 hour, 2 hours and 3 hours, 5 hours, 7 hours and 24 hours-eyes were examined closely for any adverse effects during these IOP measures. • 7 hours post treatment when IOP returned to control levels tear film production was assessed (see, for example, FIG. 9).

[2] = system: rabbits; assay: Intraocular pressure (IOP) after topical ocular dosing in rabbits; conditions: for Ave OS 2 hpt IOP: left eye; for Ave OS 2 hpt IOP / Avg OD 2 hpt IOP: 2 hours after dosing
Protocol: The IOP was assessed as a component of clinical outcomes for the animals in the studies described herein. The table below represents the effect of R-DOI on IOP 2 hours after dosing with the indicated concentration of R-DOI. Eyes were individually assessed and are indicated as IOP for the right (OD) or left (OS) eye.
Each eye of each rabbit was then assessed for initial IOP by tonometer.
IOP determinations were made at 30 minutes, 1 hour, 1.5 hours and 2.5 hours-eyes were examined closely for any adverse effects during these IOP measures.
(§2) 3 days post treatment at the same time initial measures were made, IOP and tear film production were re-assessed to examine if effects were sustained post 1 treatment.
The IOP was assessed via a TonoVet rebound Tonometer. The tables herein (see, for example, FIG. 4) represent the effect of Compound 1 on IOP at time intervals within the first 2.5 hours after dosing with 0.01% Compound 1 in BSS with 0.5% CMC. Eyes were individually assessed and are indicated as IOP for the right (OD) or left (OS) eye. 3 days post treatment eyes were reassessed for IOP changes to see if the effects of treatment lasted over a prolonged period.
as §1
The IOP was assessed via a TonoVet rebound Tonometer. The tables herein (see, for example, FIGS. 10-11) represents the effect of R-DOI on IOP at the defined time intervals Eyes were individually assessed and are indicated as IOP for the right (OD) or left (OS) eye.

[3] = system: rabbits; assay: Tear film production by Schirmer's Tear Flo Strips in rabbits
Protocol: Each eye of each rabbit was assessed for tear film production by Schirmer's Tear Flo Strips at a 30 second interval of analysis. Tear measures were evaluated by a digital caliper to determine mm of tears collected.
as §2
(§3) Effects of Compound 1 on Tear Production: Current IOP lowering glaucoma drugs eventually have effects on tear production resulting in dry eye conditions. Further, there are additional associations between dry eye and glaucoma, with co-incidence of the two conditions quite common. […] Selective 5-HT agonists/antagonists can reverse symptoms of dry eye-a very large ophthalmic market. The effects of Compound 1 on tear film production (see, for example, FIG. 6 panels A-D) were therefore assessed by a Schirmer's Tear Flo strip and measured using a digital micrometer caliper.
as §1
as §3, with “R-DOI” for “Compound 1”, “conditions” for “conditions quite”, “production” for “production (see, for example, FIG. 6 panels A-D)”

[4] = 0.075%, 50 μL per eye, both eyes, single dose
[5] = 0.075%, 50 μL per eye, both eyes, single dose, listed as R-DOI HCl
[6] = 0.1%, 50 μL per eye, both eyes, single dose
[7] = 0.1%, 50 μL per eye, both eyes, single dose, 2 hour observation
[8] = 0.1%, 50 μL per eye, both eyes, single dose, 2 hour observation, listed as R-DOI HCl
[9] = 0.01% single dose, group E5/E6, 2 h
[10] = 0.1% single dose, group E3/E4, 2 h

Q: `COc1cc(C[C@@H](C)N)c(OC)cc1I` [R-DOI, (R)-1-(2,5-dimethoxy-4-iodophenyl)-2-aminopropane] was tested. Which “ocular tolerability of ophthalmic drops (irritability, dry eye or tearing, corneal damage, inflammation, neovascularization)” value ([1]; 0.01% or 0.05%, repeated dosing, listed as R-DOI HCl) did it give?
A: tolerated with no signs or symptoms of irritability; also recorded: Neither signs of dry eye nor excessive tear production was observed; also recorded: no damage to corneal surfaces, barrier intactness, inflammation, or neovascularization

Q: What about the “adverse events (ocular, systemic, behavioral or otherwise)” value ([1]; 0.01%, 50 μL per eye, both eyes, single dose) of the same compound?
A: No observable changes; also recorded: no apparent adverse events

Q: And the “adverse events (ocular, systemic, behavioral or otherwise)” value ([1]; 0.01%, 50 μL per eye, both eyes, single dose, listed as R-DOI HCl)?
A: no adverse or abnormal events observed

Q: And the “adverse events on repeated dosing” value ([1]; 0.01%, both eyes)?
A: did not cause any adverse events; also recorded: No observable changes

Q: What about the “adverse events on repeated dosing” value ([1]; 0.01%, both eyes, listed as R-DOI HCl) of the same compound?
A: no adverse or abnormal events observed

Q: What about the “acute ocular toxicity, irritability or adverse ocular reactions” value ([1]; 0.01%, acute single dosing) of the same compound?
A: did not exhibit any acute ocular toxicity, irritability, or adverse ocular reactions

Q: What about the “adverse events (ocular, systemic, behavioral or otherwise)” value ([1]; 0.05%, 50 μL per eye, both eyes, single dose) of the same compound?
A: No adverse events; also recorded: No observable changes

Q: What about the “adverse events (ocular, systemic, behavioral or otherwise)” value ([1]; 0.05%, 50 μL per eye, both eyes, single dose, listed as R-DOI HCl) of the same compound?
A: no adverse or abnormal events observed

Q: And the “adverse events on repeated dosing” value ([1]; 0.05%, both eyes)?
A: did not cause any adverse events; also recorded: No observable changes

Q: And the “adverse events on repeated dosing” value ([1]; 0.05%, both eyes, listed as R-DOI HCl)?
A: no adverse or abnormal events observed

Q: And the “adverse events (ocular, systemic, behavioral or otherwise)” value [1, 4]?
A: No adverse events; also recorded: No CNS, Ocular Behavioral or Systemic Changes

Q: What about the “pupil dilation/contraction (miosis)” value [1, 4] of the same compound?
A: Slight Miosis can be observed in E10 and E11

Q: And the “adverse events (ocular, systemic, behavioral or otherwise)” value [1, 5]?
A: no adverse CNS or systemic events observed

Q: And the “pupil dilation/contraction (miosis)” value [1, 5]?
A: Slight but transient miosis was evident in 2 animals

Q: What about the “time for miosis to resolve to normal after initial observation” value ([1]; 0.075%, single dose, 2 animals) of the same compound?
A: ≤ 15 min

Q: And the onset of symptoms [1, 6]?
A: 20 min

Q: And the “time post treatment at which observed effects were cleared” value [1, 6]?
A: cleared by one hour post administration and 1 hour to 2 hour post: Regained Responsiveness; Breathing Normal; Pupils Normal

Q: And the “CNS associated behavioral effects” value [1, 7]?
A: only slight CNS associated behavioral effects were noted; also recorded: Lethargy; also recorded: Head twitch?

Q: And the “pupil dilation/contraction (miosis)” value [1, 7]?
A: miosis or contraction of the pupil; also recorded: Miosis obvious (pupil contracted)

Q: What about the “systemic effects (respiration and heart rate)” value [1, 7] of the same compound?
A: increased respiration and heart rate were noted; also recorded: Increased breathing and Heartrate

Q: What about the “CNS associated behavioral effects” value [1, 8] of the same compound?
A: minimal to no head bobs/twitches observed

Q: And the “systemic effects (respiration and heart rate)” value [1, 8]?
A: obvious increased respiration and heart rates

Q: And the “time post treatment at which observed effects were cleared” value ([1]; 0.1%, 50 μL per eye, both eyes, single dose, listed as R-DOI HCl)?
A: approximately 1 hour

Q: What about the “threshold dose for inducing systemic effects and minimal undesirable events” value ([1]; both eyes) of the same compound?
A: greater than 0.075%

Q: What about the “threshold dose for inducing systemic effects and minimal undesirable events” value ([1]; both eyes, listed as R-DOI HCl) of the same compound?
A: 0.1%

Q: And the “systemic and behavioral threshold concentration for delivery” value ([1]; delivered as a 50 μL drop of 0.1% ophthalmic solution to both eyes)?
A: ≥ 100 total micrograms per animal

Q: And the “acute ocular toxicity, irritability or adverse ocular reactions” value ([1]; topical eye drop, acute single dosing and repeated dosing trials)?
A: did not exhibit any acute ocular toxicity, irritability or adverse ocular reactions

Q: And the “time post administration by which a significant decrease in IOP was shown” value ([2]; 0.01% single dose)?
A: ≤ 30 min

Q: What about the “whether the decrease in intraocular pressure was sustained” value ([2]; 0.01% single dose, IOP followed to 24 hours) of the same compound?
A: not sustained following 3 hours post treatment

Q: What about the “Avg % change Group” value [2, 9] of the same compound?
A: −53.33%

Q: And the “Avg Delta Eye Group” value [2, 9]?
A: −7.75

Q: What about the “Ave OS 2 hpt IOP” value ([2]; 0.01% single dose) of the same compound?
A: 13.50 and 7.00

Q: And the “Avg OD 2 hpt IOP” value ([2]; 0.01% single dose, right eye)?
A: 12.25 and 7.00

Q: And the “% Change (OD)” value ([2]; 0.01% single dose, right eye, 2 h vs starting IOP)?
A: −56.67% and −50.00%

Q: And the “Avg % change Group” value [2, 10]?
A: −30.77%

Q: And the “Avg Delta Eye Group” value [2, 10]?
A: −4.94

Q: And the “Ave OS 2 hpt IOP” value ([2]; 0.1% single dose)?
A: 13.25 and 9.00

Q: And the “Avg OD 2 hpt IOP” value ([2]; 0.1% single dose, right eye)?
A: 11.50 and 13.25

Q: What about the “effect on intraocular pressure” value ([2]; single topical ocular dose) of the same compound?
A: decreased IOP with the greatest reduction of IOP observed for the lower R-DOI dosages; also recorded: acutely decreased intraocular pressure with a single dose

Q: What about the “average increase in tear film production” value ([3]; 0.01% single dose, 7 h post treatment) of the same compound?
A: 2.27 mm

Q: And the “tear production as measured by Schirmer's test” value ([3]; topical ocular dose)?
A: increased tear production relative to initial and control treatment; also recorded: significant increase in tear production
